Experimental data taken from PMC12467033, “Exploring the Inhibitory Potential of Six Porphyrin Compounds Against α-Amylase and α-Glucosidase Linked to Diabetes” (Biomolecules, 2025).
Where two headings read alike, the source gives them in different places.

How the values were obtained:
α-amylase [1] = biological target: T1, α-amylase (Sus scrofa, UniProt P00690); assay: Mode of α-AMY inhibition (reversibility, Lineweaver–Burk kinetics); format: biochemical
T1 sequence (P00690 16-511): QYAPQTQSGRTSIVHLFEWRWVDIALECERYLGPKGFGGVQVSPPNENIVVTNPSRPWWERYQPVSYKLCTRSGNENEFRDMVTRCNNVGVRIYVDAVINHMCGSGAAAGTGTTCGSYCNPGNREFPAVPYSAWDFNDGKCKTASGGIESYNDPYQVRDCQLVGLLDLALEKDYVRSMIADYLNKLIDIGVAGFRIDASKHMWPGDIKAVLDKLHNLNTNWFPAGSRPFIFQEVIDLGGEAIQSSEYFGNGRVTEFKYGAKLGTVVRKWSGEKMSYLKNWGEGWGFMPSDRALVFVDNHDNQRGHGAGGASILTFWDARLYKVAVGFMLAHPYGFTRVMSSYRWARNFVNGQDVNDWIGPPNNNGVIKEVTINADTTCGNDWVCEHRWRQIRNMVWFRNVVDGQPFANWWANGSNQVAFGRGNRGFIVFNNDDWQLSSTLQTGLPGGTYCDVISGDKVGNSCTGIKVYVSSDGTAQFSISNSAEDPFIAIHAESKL
Excerpt: (§1) In the experiment, the concentration of the fixed substrate Gal-G2-α-CNP/pNPG solution was 5 mmol/L, and the concentrations of the two enzymes (100, 200, 300, 400 U/L) were used to determine the effect of different concentrations of porphyrins on enzyme activity. The concentration of the enzyme was 200 U/L, and the concentration of the substrate Gal-G2-α-CNP/pNPG solution (2.5, 5, 7.5, 10 mmol/L) was used to determine the effect of different concentrations of porphyrins on the enzyme-catalyzed substrate activity.
(§2) Upon identifying the type of inhibition, the kinetic equations vary for different inhibition types.
(§3) In the formula, v, Vmax, Km, Ki, and Kis represent the reaction rate, maximum reaction rate, Michaelis constant, and free enzyme inhibition constant, respectively, and the binding enzyme inhibition constant. [S] denotes the substrate concentration. [I] denotes the inhibitor concentration.

α-glucosidase [2] = biological target: T2, α-glucosidase (Saccharomyces cerevisiae, UniProt P53341); format: biochemical
T2 sequence (P53341 whole entry): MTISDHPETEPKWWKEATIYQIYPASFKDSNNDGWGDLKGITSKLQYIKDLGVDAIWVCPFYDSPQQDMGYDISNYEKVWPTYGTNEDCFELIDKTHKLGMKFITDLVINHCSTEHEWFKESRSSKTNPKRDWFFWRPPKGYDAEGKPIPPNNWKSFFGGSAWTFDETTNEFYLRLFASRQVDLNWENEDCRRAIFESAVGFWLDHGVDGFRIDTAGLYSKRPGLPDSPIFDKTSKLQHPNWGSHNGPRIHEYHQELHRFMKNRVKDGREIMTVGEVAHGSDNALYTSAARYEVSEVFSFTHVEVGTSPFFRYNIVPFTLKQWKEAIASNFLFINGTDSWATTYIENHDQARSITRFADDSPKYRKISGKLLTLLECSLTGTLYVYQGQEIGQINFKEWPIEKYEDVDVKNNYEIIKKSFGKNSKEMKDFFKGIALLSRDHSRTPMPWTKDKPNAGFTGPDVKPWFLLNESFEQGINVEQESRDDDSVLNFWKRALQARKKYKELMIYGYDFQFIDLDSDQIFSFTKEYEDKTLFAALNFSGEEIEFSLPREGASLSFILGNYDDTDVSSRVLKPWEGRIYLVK
Excerpt: as §1, §2, §3

α-glucosidase [3] = biological target: T2, α-glucosidase; assay: Fluorescence quenching, binding and thermodynamics with α-glucosidase
Experimental: In the α-amylase experiment, a series of porphyrins and amylase (200 U/L) were mixed in a volume ratio of 1:1. In the α-glucosidase experiment, the glucosidase concentration was 400 U/L, mixed in a volume ratio of 1:1; the samples were maintained at three different temperatures (298, 304, and 310 K) for 30 min, with excitation at 280 nm and emission scanning from 300 to 500 nm.
The Stern–Volmer equation [35] was adopted to determine the quenching mechanisms between six porphyrin compounds and both enzymes in the experimental group, with Formula (6):(6) F0/F=1+Ksv[Q]=1+Kqτ0[Q]
The Stern–Volmer equation was adapted based on experimental data to more accurately characterize the quenching behavior [36], with Formula (7):(7) F0/F=e^Ksv[Q]=e^Kqτ0[Q]
In the formula, the fluorescence quenching ratio was calculated as F0/F, where F0 corresponds to the emission intensity of pure α-amylase solution (control) and F denotes the intensity measured after the incremental addition of porphyrin ligands. KSV and Kq denote the Stern–Volmer quenching constant and the bimolecular quenching rate constant, respectively, τ0 (10^−8 s) is the average fluorescence lifetime of the fluorophore in the absence of quencher, and [Q] indicates the concentration of porphyrin compounds.
Due to the presence of an internal filtration effect, a decrease in the fluorescence intensity of the system may occur. Therefore, all fluorescence data were corrected using Formula (8) to eliminate the internal filtration effect.(8) Fcor=Fobse^(Aex+Aem)/2
The evaluation of the interaction forces between porphyrin compounds and the two enzymes can be achieved by calculating thermodynamic parameters. When both ΔH^0 and ΔS^0 are positive, the predominant interaction force is hydrophobic. When both ΔH^0 and ΔS^0 are negative, the main forces are hydrogen bonding and van der Waals forces. When ΔH^0 < 0 and ΔS^0 > 0, the primary interaction is electrostatic attraction.
The thermodynamic parameters were calculated using Formulas (9) and (10), and then the Van’t Hoff plot for the interactions between the porphyrin compounds and the two enzymes was generated by plotting lnKa on the Y-axis versus 1/T on the X-axis.(9) lnKa=−ΔH^0/RT+ΔS^0/R (10) ΔG^0=ΔH^0−TΔS^0=−RTlnKa

α-amylase [4] = biological target: T1, α-amylase; assay: Three-dimensional fluorescence spectroscopy of α-amylase complexes; conditions: 298 K; TAPP 2.5, THPP 10, TCPP 10, Fe–TCPP 12.5, Ni–TCPP 17.5, Cu–TCPP 10 μg/mL
Experimental: At 298 K, with excitation wavelengths ranging from 200 to 600 nm (2 nm increments) and emission wavelengths from 200 to 600 nm, the influence of small molecules on enzyme conformation was assessed by examining peaks in 3D fluorescence spectra [41].

α-amylase [5] = biological target: T1, α-amylase; assay: FTIR secondary structure analysis of α-AMY complexes; conditions: enzyme–porphyrin molar ratio 1:2, amide I band
Excerpt: (§4) A molar ratio of 1:2 (α-amylase/α-glucosidase)–porphyrin solution was placed in a cryocentrifugal concentrator and the dried solid sample was mixed with dry KBr and measured using a Nicolet IS-50 FTIR Spectrometer (ThermoFisher, Waltham, MA, USA) with a scanning range of 4000–400 cm^−1 and a resolution of 4 cm^−1. The overlapping peaks in the amide I band (1700–1600 cm^−1) were further analyzed into multiple feature sub-peaks, and quantitative analysis of the relative content of various secondary structures in proteins using curve fitting methods was performed.

α-glucosidase [6] = biological target: T2, α-glucosidase; assay: FTIR secondary structure analysis of α-GLU complexes; conditions: enzyme–porphyrin molar ratio 1:2, amide I band
Excerpt: as §4

[7] = enzyme 100–400 U/L, substrate 5 mmol/L
[8] = enzyme–substrate complex inhibition constant

In the case of `O=C(O)c1ccc(-c2c3nc(c(-c4ccc(C(=O)O)cc4)c4ccc([nH]4)c(-c4ccc(C(=O)O)cc4)c4nc(c(-c5ccc(C(=O)O)cc5)c5ccc2[nH]5)C=C4)C=C3)cc1` [TCPP], the Vmax (α-amylase [1]; C 25 μg/mL) is reported as 0.1046 ± 0.0025 ΔOD/min, the Vmax (α-amylase [1]; C 50 μg/mL) is reported as 0.0872 ± 0.0014 ΔOD/min and the Vmax (α-amylase [1]; C 100 μg/mL) is reported as 0.0709 ± 0.0018 ΔOD/min. The Vmax (α-amylase [1]; C 150 μg/mL) was 0.0583 ± 0.0021 ΔOD/min, the Vmax (α-amylase [1]; C 200 μg/mL) was 0.0496 ± 0.0007 ΔOD/min and the “type of inhibition of α-amylase” value (α-amylase [1]; Lineweaver–Burk plots) was “mixed type”. For the same molecule, the “reversibility of inhibition of α-amylase” value (α-amylase [1]; [7]) was “reversible inhibition”, the Kis (α-amylase [1]; [8]) was 132.4382 ± 0.1403 µg/mL and the Vmax (α-glucosidase [2]; C 5 μg/mL) was 0.1369 ± 0.0049 ΔOD/min. The Vmax (α-glucosidase [2]; C 25 μg/mL) was 0.1016 ± 0.0014 ΔOD/min, the Vmax (α-glucosidase [2]; C 50 μg/mL) was 0.0745 ± 0.0019 ΔOD/min and the Vmax (α-glucosidase [2]; C 100 μg/mL) was 0.0516 ± 0.0017 ΔOD/min. The Vmax (α-glucosidase [2]; C 150 μg/mL) was 0.0389 ± 0.0006 ΔOD/min, the “type of inhibition of α-glucosidase” value (α-glucosidase [2]; Lineweaver–Burk plots) was “mixed type” and the “reversibility of inhibition of α-glucosidase” value (α-glucosidase [2]; [7]) was “reversible inhibition”. For the same molecule, the Kis (α-glucosidase [2]; [8]) was 52.5334 ± 0.1408 µg/mL, the “binding constants K” value (α-glucosidase [3]; 310 K) was “(0.97 ± 0.02) × 10^5 L·mol^−1” and the “quenching mechanism of α-glucosidase fluorescence” value (α-glucosidase [3]; Stern–Volmer plots, 298–310 K) was “static quenching”. The Kq (α-glucosidase [3]; T 298 K) was 7.45 ± 0.04 ×10^12 L/mol/s, the Ksv (α-glucosidase [3]; T 298 K) was 7.45 ± 0.04 ×10^4 L/mol and the “n (number of binding sites)” value (α-glucosidase [3]; T 298 K) was 1.30. For the same molecule, the “ΔG^0” value (α-glucosidase [3]; T 298 K) was -8.368 ± 0.014 kcal/mol, the Kq (α-glucosidase [3]; T 304 K) was 4.90 ± 0.02 ×10^12 L/mol/s and the Ksv (α-glucosidase [3]; T 304 K) was 4.90 ± 0.02 ×10^4 L/mol. For the same molecule, the “n (number of binding sites)” value (α-glucosidase [3]; T 304 K) was 1.19, the “ΔG^0” value (α-glucosidase [3]; T 304 K) was -7.651 ± 0.017 kcal/mol and the Kq (α-glucosidase [3]; T 310 K) was 4.22 ± 0.09 ×10^12 L/mol/s. The Ksv (α-glucosidase [3]; T 310 K) was 4.22 ± 0.09 ×10^4 L/mol, the “n (number of binding sites)” value (α-glucosidase [3]; T 310 K) was 1.07 and the “ΔG^0” value (α-glucosidase [3]; T 310 K) was -7.075 ± 0.012 kcal/mol. For the same molecule, the “ΔH^0” value (α-glucosidase [3]; Van’t Hoff, 298–310 K) was -40.504 ± 0.0239 kcal/mol, the “ΔS^0” value (α-glucosidase [3]; Van’t Hoff, 298–310 K) was −451.52 ± 0.12 J/mol/k and the “Peak 1 Fluorescence Intensity” value (α-amylase [4]) was 461.6. For the same molecule, the “Peak 2 Fluorescence Intensity” value (α-amylase [4]) was 58.06, the “Random Coil” value (α-amylase [5]) was 19.84 ± 0.06% and the α-Helix (α-amylase [5]) was 10.24 ± 0.02%. It also gave a β-Antiparallel (α-amylase [5]) of 11.75 ± 0.03%, a β-Sheet (α-amylase [5]) of 18.51 ± 0.05% and a β-Turn (α-amylase [5]) of 39.66 ± 0.09%. The “Random Coil” value (α-glucosidase [6]) was 22.15 ± 0.04%, the α-Helix (α-glucosidase [6]) was 22.71 ± 0.05% and the β-Antiparallel (α-glucosidase [6]) was 9.57 ± 0.02%. It also gave a β-Sheet (α-glucosidase [6]) of 12.03 ± 0.02% and a β-Turn (α-glucosidase [6]) of 33.54 ± 0.07%.
